From patent publication US11795200B2, “Nano small peptide and its use in preparation of drugs for treating and preventing fundus vascular diseases” (FUTU Biotech Co., Ltd., priority 2021, dated 2023)
Non-standard residues stand in square brackets, D forms with d. Residues, ends and D or L forms follow the SMILES beside them. No end group written: not given here. *: point of attachment. Palmitoyl = CCCCCCCCCCCCCCCC(=O)*

Key:
[1] = system: primary mouse brain microvascular endothelial cells; assay: sSema4D-induced endothelial cell migration (transwell experiment); assay type: cell-based; details: 24 h; for inhibition of endothelial cell migration compared with BMA-12: 20 μM vs BMA-12 2 μg/μL; for sSema4D-induced endothelial cell migration: 20 μM, sSema4D 1600 ng/mL
Method: The primary mouse brain microvascular endothelial cells were starved with 0.5% ECM for 4 to 6 h. The mouse brain microvascular endothelial cells were seeded in the upper layer of a 24-well transwell chamber ([…]). 1% ECM medium containing FH (20 μM), FG (20 μM), and Sema4D neutralizing antibody (BMA-12) (2 μg/μL) (the concentration of sSema4D in the medium is 1600 ng/mL) was added to the lower chamber, and an equal volume of DMSO was added as control. The cells were incubated in a 5% CO2 incubator at 37° C. for 24 h. 24 h later, the cells on the bottom of the chamber were fixed with 4% paraformaldehyde and stained with crystal violet, and the endothelial cells that penetrated to the bottom of the chamber were counted under a microscope.

[2] = DLS particle size and zeta potential of FH and FG nanoparticles; assay type: physicochemical; details: zeta sizer, 25° C.
Method: First, FG and FH nanoparticle solutions with a concentration of 20 μM were prepared as follows. 0.01 mmol of FG (or FH) was weighed and dissolved in 1 mL of DMSO solution, and then diluted into 5 folds to a concentration of 2 mM, thus obtaining mother solution A. 10 μL of mother solution A was quickly added to 1 mL of water, and the resulting solution was then vortexed for 30 s to obtain a nanoparticle solution. Second, samples were made. 10 ul of FG (or FH) solution was added dropwise onto a copper mesh for 5 min, and the excess solution was removed with filter paper. 10 μL of uranyl acetate stain was added dropwise for 5 min, and the excess stain was removed with filter paper. Washing with 10 μl of deionized water was carried out once. The samples were dried in vacuum overnight. Finally, transmission electron microscopy observations were performed on an HT-7700 transmission electron microscope (Hitachi, Tokyo, Japan). Scale bar was 200 nm.
The particle size and zeta potential of FH and FG nanoparticles were measured with a zeta sizer (Nano ZZ90, Malvern, UK) at 25° C.

[3] = system: mouse brain microvascular endothelial cells; assay: sSema4D-induced endothelial cell leakage (transmembrane resistance); assay type: cell-based; details: 36 h; for effect on endothelial cell leakage compared with BMA-12: 20 μM vs BMA-12 2 μg/μL; for sSema4D-induced endothelial cell leakage: 20 μM, sSema4D 1600 ng/mL
Method: A layer of fibronectin was first applied to coat the upper layer of a 24-well transwell chamber (0.4 um) and incubated at room temperature for 1 h; after coating, the mouse brain microvascular endothelial cells were seeded, and cultured for 5 days until the cells were full, and then FH (20 μM), FG (20 μM), and Sema4D neutralizing antibody (BMA-12) (2 μg/μL) were added to the medium (the concentration of sSema4D in the medium was 1600 ng/mL), respectively. An equal volume of DMSO was added as a control, and ECM was used as a blank control. After incubation for 36 h, the resistance value was measured by a cell transmembrane resistance measuring instrument.

OIR model mice = assay: Fundus angiogenesis in OIR model (Isolectin B4, confocal); assay type: in vivo, mouse; details: for percentage of abnormal blood vessels in the total retinal area: 2 nmol injected into the vitreous on day 12, read on day 17; for treatment effect on fundus angiogenesis compared with BMA-12: 2 nmol vs 1 μg BMA-12, intravitreal
Method: Treatment group (OIR): After giving birth, 3-4 month old C57BL/6 mother mice were placed in an oxygen chamber with 75% oxygen together with 7 day old young mice, and the young mice and the mother mice were taken out on the 12th day of birth of the young mice. Immediately after the young mice were anesthetized, 2 nmol of FH, 2 nmol of FG, and 1 μg of Sema4D neutralizing antibody (BMA-12) (BMA-12, i.e., anti-Sema4D) were injected into the vitreous, and an equal volume of DMSO was used as a control. The young mice were then further raised in normal air for 5 days; the young mice were anesthetized on the 17th day of birth, and after cardiac perfusion with normal saline, the eyeballs were separated and then fixed, stained with Isolectin B4 overnight at 4° C., flatly spread on a glass slide, and photographed.
Control group (Normal): Young mice, grown with normoxia, were anesthetized on the 17th day of birth. After cardiac perfusion with normal saline, the eyeballs were taken out, and the retinas were peeled off and then fixed with 4% paraformaldehyde, stained with Isolectin B4 at 4° C. overnight, flatly spread on a glass slide, and photographed
Laser confocal was carried out to detect retinal angiogenesis, and ImageJ was carried out to calculate the ratio of retinal neovascularization clusters to the entire retinal area, that is, the proportion of new blood vessels. […] It can be seen in FIG. 4A that the treatment effect of FH is the best.

sSema4D = biological target: T1, sSema4D (Mus musculus, UniProt O09126); assay: Reduction of sSema4D concentration in a simple medium system (ELISA); assay type: biochemical; design: the free Sema4D protein after enzyme cleavage of Sema4D; purchased R&D Systems; details: for sSema4D concentration: medium with 1600 ng/mL sSema4D, FH, FG 20 μM, BMA-12 2 μg/μL
T1 sequence (O09126 24-733 limits assumed): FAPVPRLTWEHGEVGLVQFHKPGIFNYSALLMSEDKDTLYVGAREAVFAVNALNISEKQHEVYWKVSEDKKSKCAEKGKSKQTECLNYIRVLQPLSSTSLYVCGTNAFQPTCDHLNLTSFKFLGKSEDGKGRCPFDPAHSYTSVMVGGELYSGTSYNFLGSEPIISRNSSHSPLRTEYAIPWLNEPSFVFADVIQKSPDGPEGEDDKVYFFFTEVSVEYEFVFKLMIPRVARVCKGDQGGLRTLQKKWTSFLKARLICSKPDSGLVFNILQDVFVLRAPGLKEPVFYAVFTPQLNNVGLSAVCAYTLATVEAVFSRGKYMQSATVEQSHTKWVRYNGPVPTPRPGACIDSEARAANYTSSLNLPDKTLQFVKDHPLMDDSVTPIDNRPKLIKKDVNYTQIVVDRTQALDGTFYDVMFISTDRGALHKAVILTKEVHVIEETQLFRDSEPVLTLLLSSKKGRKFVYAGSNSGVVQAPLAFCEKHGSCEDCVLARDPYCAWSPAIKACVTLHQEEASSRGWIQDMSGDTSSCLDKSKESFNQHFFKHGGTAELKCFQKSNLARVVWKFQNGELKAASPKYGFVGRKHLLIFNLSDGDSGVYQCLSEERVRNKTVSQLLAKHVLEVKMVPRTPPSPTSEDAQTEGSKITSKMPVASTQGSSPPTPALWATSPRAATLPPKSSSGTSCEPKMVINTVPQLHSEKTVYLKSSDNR
Method: The nano small peptides FH, FG, DMSO, and Sema4D neutralizing antibody (BMA-12) were added to the medium (the concentration of sSema4D in the medium was 1600 ng/mL) to ensure that the final concentration of FH and FG was 20 μM, and the final concentration of the Sema4D neutralizing antibody (BMA-12) (BMA-12, i.e., anti-Sema4D) was 2 μg/μL, an equal volume of DMSO was then added as a control, and culture plates were set still at 37° C. for 12, 24, 36, and 48 h, and the culture medium was collected, and the expression of Sema4D protein in the supernatant was detected using an ELISA kit (Shanghai Yuanmu Biotechnology Co., Ltd.).

CCCCCCCCCCCCCCCC(=O)N[C@H](Cc1ccccc1)C(=O)N[C@@H](Cc1ccccc1)C(=O)N[C@H](C(=O)N[C@@H](CC(C)C)C(=O)N[C@@H](CCCCN)C(=O)N[C@@H](CCCCN)C(=O)N[C@@H](CCC(N)=O)C(=O)N[C@@H](CCCCN)C(=O)N[C@@H](CCCNC(=N)N)C(=O)N1CCC[C@H]1C(=O)N[C@@H](CCCNC(=N)N)C(=O)N[C@@H](Cc1c[nH]cn1)C(=O)O)C(C)C [FH] (Palmitoyl-[dF]FVLKKQKRPRH-OH)
inhibition of endothelial cell migration compared with BMA-12 [1]: more effective in inhibiting endothelial cell migration than Sema4D neutralizing antibody (BMA-12) | sSema4D-induced endothelial cell migration [1]: can significantly inhibit the sSema4D-induced endothelial cell migration | charges (zeta potential) [2]: +40.4 mV | particle diameters [2]: 54.43±2.8 nm | effect on endothelial cell leakage compared with BMA-12 [3]: comparable to that of Sema4D neutralizing antibody (BMA-12) | sSema4D-induced endothelial cell leakage [3]: can significantly inhibit sSema4D-induced endothelial cell leakage | percentage of abnormal blood vessels in the total retinal area (OIR model mice): reduce the percentage of abnormal blood vessels in the total retinal area | treatment effect among groups in FIG. 4A (OIR model mice; 2 nmol intravitreal): the best | treatment effect on fundus angiogenesis compared with BMA-12 (OIR model mice): comparable to that of the Sema4D neutralizing antibody (BMA-12) | sSema4D concentration (sSema4D; 24 h): can reduce the sSema4D concentration | sSema4D concentration (sSema4D; 36 h): can still reduce the sSema4D concentration | effect on sSema4D concentration, FH compared with FG (sSema4D; within the same action time, 20 μM): better than that of FG

Palmitoyl-FFVLKKNKAAKG [FG]
inhibition of endothelial cell migration compared with BMA-12 [1]: more effective in inhibiting endothelial cell migration than Sema4D neutralizing antibody (BMA-12) | sSema4D-induced endothelial cell migration [1]: can significantly inhibit the sSema4D-induced endothelial cell migration | charges (zeta potential) [2]: +44.8 mV | particle diameters [2]: 57.67±2.6 nm | effect on endothelial cell leakage compared with BMA-12 [3]: comparable to that of Sema4D neutralizing antibody (BMA-12) | sSema4D-induced endothelial cell leakage [3]: can significantly inhibit sSema4D-induced endothelial cell leakage | percentage of abnormal blood vessels in the total retinal area (OIR model mice): reduce the percentage of abnormal blood vessels in the total retinal area | treatment effect on fundus angiogenesis compared with BMA-12 (OIR model mice): comparable to that of the Sema4D neutralizing antibody (BMA-12) | sSema4D concentration (sSema4D; 24 h): can reduce the sSema4D concentration | sSema4D concentration (sSema4D; 36 h): can still reduce the sSema4D concentration
